Source: PMC3715805 (International Journal of Molecular Sciences, 2007)

Molecular target: T1, cyclooxygenase-1 (COX-1) (Ovis aries, UniProt P05979)
T1 sequence (P05979 25-600): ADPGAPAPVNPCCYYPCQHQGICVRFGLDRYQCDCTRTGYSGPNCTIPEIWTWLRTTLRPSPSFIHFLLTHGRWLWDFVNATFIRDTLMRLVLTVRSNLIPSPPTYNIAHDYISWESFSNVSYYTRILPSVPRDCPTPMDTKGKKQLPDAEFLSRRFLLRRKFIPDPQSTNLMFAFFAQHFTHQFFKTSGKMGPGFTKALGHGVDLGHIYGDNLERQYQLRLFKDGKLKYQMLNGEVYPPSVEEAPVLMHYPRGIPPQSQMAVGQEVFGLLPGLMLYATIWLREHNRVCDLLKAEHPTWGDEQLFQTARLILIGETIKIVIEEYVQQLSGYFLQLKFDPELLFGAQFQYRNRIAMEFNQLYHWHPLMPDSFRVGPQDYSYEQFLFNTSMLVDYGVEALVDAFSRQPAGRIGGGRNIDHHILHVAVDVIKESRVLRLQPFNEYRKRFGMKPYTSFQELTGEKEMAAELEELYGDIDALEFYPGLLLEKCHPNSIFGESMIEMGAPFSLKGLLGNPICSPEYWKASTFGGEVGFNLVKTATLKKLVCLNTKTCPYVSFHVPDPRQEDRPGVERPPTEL
Assay: O2 consumption
Format: biochemical

IC50: > 100 µM
Compound: COc1cc(O)c2c(=O)cc(-c3ccc(OC)c(-c4c(O)cc(O)c5c(=O)cc(-c6ccc(O)cc6)oc45)c3)oc2c1 [compound 1, ginkgetin]
